From ChEMBL document CHEMBL3864169, “Quinazoline Carboxamides as Selective Antagonists of Adenosine 2A Receptor” (ACS Med Chem Lett, 2016)

Biological target: Adenosine receptor A2a (Homo sapiens, UniProt P29274)
Experiment: Displacement of [3H]5-amino-7-[2- phenethyl]-2-(furan-2-yl)-7H-pyrazolo[4,3-e][l,2,4]triazolo[l,5-c]pyrimidine from human adenosine A2A receptor expressed in HEK293 cell membranes measured after 1 hr by TopCount scintillation counting method

Chain of Adenosine receptor A2a (P29274 whole entry): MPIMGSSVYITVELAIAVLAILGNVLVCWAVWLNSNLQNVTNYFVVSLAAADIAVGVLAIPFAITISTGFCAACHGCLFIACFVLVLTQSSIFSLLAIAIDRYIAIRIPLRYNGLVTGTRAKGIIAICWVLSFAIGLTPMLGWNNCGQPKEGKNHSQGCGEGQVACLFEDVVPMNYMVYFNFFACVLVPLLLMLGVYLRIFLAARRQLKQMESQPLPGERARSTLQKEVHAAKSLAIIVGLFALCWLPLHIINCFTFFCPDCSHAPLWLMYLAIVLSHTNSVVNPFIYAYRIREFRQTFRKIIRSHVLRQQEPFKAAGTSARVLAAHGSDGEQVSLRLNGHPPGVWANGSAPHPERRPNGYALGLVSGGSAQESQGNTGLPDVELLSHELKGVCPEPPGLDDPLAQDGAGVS

Structure (SMILES): CC(C)OCc1cccc(CNC(=O)c2nc(N)nc3c(F)cccc23)n1
- Ki: 1 nM
